Columns and labels:
RORγ-LBD = molecular target: T1, RORγ-LBD (Homo sapiens, UniProt P51449); assay: RORγ-Ligand Binding Domain (LBD) TR-FRET Assay; assay type: biochemical; conditions: for TR-FRET Assay Max Response: maximum response;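 as to TR-FRET Assay Max Response: 665/615 nm signal ratio set to 100 without ursolic acid or test compound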
T1 construct: made in house; host or cells: SF9 cells (baculovirus); used as diluted lysate
T1 sequence (P51449 269-508 limits assumed): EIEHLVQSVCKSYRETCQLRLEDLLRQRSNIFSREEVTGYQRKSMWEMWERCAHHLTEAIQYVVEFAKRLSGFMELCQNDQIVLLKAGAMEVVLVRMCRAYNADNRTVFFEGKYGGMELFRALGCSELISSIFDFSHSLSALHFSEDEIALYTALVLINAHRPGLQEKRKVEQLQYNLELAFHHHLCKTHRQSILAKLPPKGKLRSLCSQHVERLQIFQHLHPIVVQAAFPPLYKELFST
Procedure, shortened: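 Lysate from SF9 cells expressing His-RORγ-LBD is diluted to about 3 nM final in 50 mM Tris pH 7.0 assay buffer. A biotin-tagged SRC1 LXXLL peptide goes in at 200 nM final, plus ursolic acid at 2 μM final. Test compounds carry 1% DMSO final; signal read by TR-FRET.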

Gal4-RORγ-LBD = molecular target: T2, Gal4-RORγ-LBD (Homo sapiens, UniProt P51449); assay: Gal4-RORγ Luciferase Reporter Assay in HEK-293T Cells; assay type: cell-based; conditions: HEK-293 cells, luciferase reporter; for Gal4-RORγ Assay Max Response: maximum response
T2 construct: expressed in transfected cells
T2 sequence (P51449 269-508 limits assumed): T1 sequence (P51449 269-508 limits assumed)
Procedure, shortened: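 Max Response was taken as the upper plateau of a 4-parameter logistic fit of luciferase signal, normalized to 100 for wells without ursolic acid or compound. Transiently Gal4-RORγ-LBD/Gal4-luc transfected HEK-293 cells carrying […] ursolic acid were incubated with test compounds (0.2% DMSO) overnight at 37 °C and read with One-Glo.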

Compound	EC50 (RORγ-LBD; RORγ-LBD TR-FRET) [nM]	EC50 (Gal4-RORγ-LBD; with ursolic acid) [nM]	EC50 (RORγ-LBD; RORγ-LBD TR-FRET assay) [nM]	TR-FRET Assay Max Response (RORγ-LBD; RORγ-LBD TR-FRET assay)	EC50 (Gal4-RORγ-LBD; in presence of ursolic acid) [nM]	Gal4-RORγ Assay Max Response (Gal4-RORγ-LBD; in presence of ursolic acid)
CCOc1nn(CC)cc1S(=O)(=O)N1C[C@H](CCC(=O)O)Oc2ccc(/C=C/c3ccccc3Cl)cc21 [Example 89BC, (S,E)-3-(6-(2-chlorostyryl)-4-((3-ethoxy-1-ethyl-1H-pyrazol-4-yl)sulfonyl)-3,4-dihydro-2H-benzo[b][1,4]oxazin-2-yl)propanoic acid]	< 500	500 to 5000	–	–	–	–
Cc1ccc(F)c(/C=C/c2ccc3c(c2)N(S(=O)(=O)c2cccc(C(F)(F)F)c2)C[C@H](CCC(=O)O)O3)c1 [Example 89CA, (S,E)-3-(6-(2-fluoro-5-methylstyryl)-4-((3-(trifluoromethyl)phenyl)sulfonyl)-3,4-dihydro-2H-benzo[b][1,4]oxazin-2-yl)propanoic acid]	< 500	> 10000	–	–	–	–
C/C(=C\c1ccc2c(c1)N(S(=O)(=O)c1cccc(C(F)(F)F)c1)C[C@@H](NC(=O)C(C)(C)O)C2)c1c(F)cccc1Cl [Example 116G, (S,E)-N-(7-(2-(2-chloro-6-fluorophenyl)prop-1-en-1-yl)-1-((3-(trifluoromethyl)-phenyl)sulfonyl)-1,2,3,4-tetrahydroquinolin-3-yl)-2-hydroxy-2-methylpropanamide]	–	–	< 500	*** (a value in the range of greater than 150 to 200)	< 500	* (a value in the range of 30 to 90)
C/C(=C\c1ccc2c(c1)N(S(=O)(=O)c1cccc(C(F)(F)F)c1)[C@H](C)[C@@H](O)C2)c1c(F)cccc1Cl (racemic) [Example 177, rac-(2R,3S)-7-((E)-2-(2-Chloro-6-fluorophenyl)prop-1-en-1-yl)-2-methyl-1-((3-(trifluoromethyl)phenyl)sulfonyl)-1,2,3,4-tetrahydroquinolin-3-ol]	–	–	< 500	** (a value in the range of greater than 90 to 150)	500 to 5000	** (a value in the range of greater than 90 to 150)
COC(=O)CC[C@H]1CN(S(=O)(=O)c2cccc(C(F)(F)F)c2)c2cc(/C=C/c3cccc(Cl)c3)ccc2O1 [Example 89DI, methyl (S,E)-3-(6-(3-chlorostyryl)-4-((3-(trifluoromethyl)phenyl)-sulfonyl)-3,4-dihydro-2H-benzo[b][1,4]oxazin-2-yl)propanoate]	< 500	> 10000	–	–	–	–
CCOc1ncc(C(F)(F)F)cc1S(=O)(=O)N1C[C@H](CCC(=O)O)Oc2ccc(/C=C/c3c(Cl)cccc3C(C)(F)F)cc21 [Example 89FG, (S,E)-3-(6-(2-chloro-6-(1,1-difluoroethyl)styryl)-4-((2-ethoxy-5-(trifluoromethyl)-pyridin-3-yl)sulfonyl)-3,4-dihydro-2H-benzo[b][1,4]-oxazin-2-yl)propanoic acid]	< 500	< 500	–	–	–	–
O=S(=O)(c1cccc(C(F)(F)F)c1)N1C[C@H](O)Cc2ccc(/C=C/c3c(F)cccc3Cl)cc21 [Example 163, (R,E)-7-(2-Chloro-6-fluorostyryl)-1-((3-(trifluoromethyl)phenyl)sulfonyl)-1,2,3,4-tetrahydroquinolin-3-ol]	–	–	< 500	** (a value in the range of greater than 90 to 150)	< 500	** (a value in the range of greater than 90 to 150)
C/C(=C\c1ccc2c(c1)N(S(=O)(=O)c1cccc(C(F)(F)F)c1)C[C@H](CCN1CCOCC1)O2)c1c(F)cccc1Cl [Example 119A, (S,E)-6-(2-(2-chloro-6-fluorophenyl)prop-1-en-1-yl)-2-(2-morpholinoethyl)-4-((3-(trifluoromethyl)phenyl)sulfonyl)-3,4-dihydro-2H-benzo[b][1,4]oxazine]	–	–	< 500	**** (a value greater than 200)	< 500	** (a value in the range of greater than 90 to 150)
Cc1cccc2c1c(/C=C/c1ccc3c(c1)N(S(=O)(=O)c1cccc(C(F)(F)F)c1)C[C@H](CCC(=O)O)O3)nn2C [Example 89BN, (S,E)-3-(6-(2-(1,4-dimethyl-1H-indazol-3-yl)vinyl)-4-((3-(trifluoromethyl)phenyl)sulfonyl)-3,4-dihydro-2H-benzo[b][1,4]oxazin-2-yl)propanoic acid]	< 500	500 to 5000	–	–	–	–
C/C(=C\c1cc2c(cc1F)O[C@@H](CCC(=O)O)CN2S(=O)(=O)c1cccc(C(F)(F)F)c1)c1c(F)cccc1Cl [Example 42, (S,E)-3-(6-(2-(2-Chloro-6-fluorophenyl)prop-1-en-1-yl)-7-fluoro-4-((3-(trifluoromethyl)phenyl)sulfonyl)-3,4-dihydro-2H-benzo[b][1,4]oxazin-2-yl)propanoic acid]	< 500	500 to 5000	–	–	–	–
COc1cc(S(=O)(=O)N2c3cc(/C=C/c4c(F)cccc4Cl)ccc3C[C@H](O)[C@H]2C)ccc1F (racemic) [Example 174, rac-(2R,3S)-7-((E)-2-Chloro-6-fluorostyryl)-1-((4-fluoro-3-methoxyphenyl)sulfonyl)-2-methyl-1,2,3,4-tetrahydroquinolin-3-ol]	–	–	< 500	** (a value in the range of greater than 90 to 150)	500 to 5000	* (a value in the range of 30 to 90)
C/C(=C\c1ccc2c(c1)N(S(=O)(=O)c1ccc(F)c(C(F)(F)F)c1)C[C@H](CCC(=O)O)O2)c1c(F)cccc1Cl [Example 86A, (S,E)-3-(6-(2-(2-chloro-6-fluorophenyl)prop-1-en-1-yl)-4-((4-fluoro-3-(trifluoromethyl)-phenyl)sulfonyl)-3,4-dihydro-2H-benzo[b][1,4]oxazin-2-yl)-propanoic acid]	< 500	500 to 5000	–	–	–	–
CCOc1nn(CC)cc1S(=O)(=O)N1C[C@H](CCC(=O)OC)Oc2ccc(/C=C/c3ccc(Cl)cc3)cc21 [Example 89DA, methyl (S,E)-3-(6-(4-chlorostyryl)-4-((3-ethoxy-1-ethyl-1H-pyrazol-4-yl)sulfonyl)-3,4-dihydro-2H-benzo[b][1,4]oxazin-2-yl)propanoate]	> 10000	> 10000	–	–	–	–
C/C(=C\c1ccc2c(c1)N(S(=O)(=O)c1ccc(F)c(Cl)c1)C[C@H](CCC(=O)O)O2)c1c(F)cccc1Cl [Example 86E, (S,E)-3-(4-((3-chloro-4-fluorophenyl)sulfonyl)-6-(2-(2-chloro-6-fluorophenyl)prop-1-en-1-yl)-3,4-dihydro-2H-benzo[b][1,4]oxazin-2-yl)propanoic acid]	< 500	500 to 5000	–	–	–	–
CCn1cc(S(=O)(=O)N2C[C@H]([C@@H](C)N)Oc3ccc(/C=C(\C)c4c(F)cccc4Cl)cc32)c(Cl)n1 [Example 101, (R)-1-((R)-4-((3-Chloro-1-ethyl-1H-pyrazol-4-yl)sulfonyl)-6-((E)-2-(2-chloro-6-fluorophenyl)prop-1-en-1-yl)-3,4-dihydro-2H-benzo[b][1,4]oxazin-2-yl)ethan-1-amine]	< 500	> 10000	–	–	–	–
C[C@@H](O)COc1ncc(C(F)(F)F)cc1S(=O)(=O)N1C[C@H](CCC(=O)O)Oc2ccc(/C=C/c3c(F)cccc3Cl)cc21 [Example 79, 3-((S)-6-((E)-2-Chloro-6-fluorostyryl)-4-((2-((R)-2-hydroxypropoxy)-5-(trifluoromethyl)pyridin-3-yl)sulfonyl)-3,4-dihydro-2H-benzo[b][1,4]oxazin-2-yl)propanoic acid]	< 500	500 to 5000	–	–	–	–
CCOc1nn(CC)cc1S(=O)(=O)N1C[C@H](CCC(=O)OC)Oc2ccc(/C=C/c3cccnc3)cc21 [Example 89J, (S,E)-methyl 3-(4-((3-ethoxy-1-ethyl-1H-pyrazol-4-yl)sulfonyl)-6-(2-(pyridin-3-yl)vinyl)-3,4-dihydro-2H-benzo[b][1,4]oxazin-2-yl)propanoate]	500 to 5000	> 10000	–	–	–	–
COC(=O)CC[C@H]1CN(S(=O)(=O)c2cccc(C(C)C)c2)c2cc(/C=C(\C)c3c(F)cccc3Cl)ccc2O1 [Example 86R, (S,E)-methyl 3-(6-(2-(2-chloro-6-fluorophenyl)prop-1-en-1-yl)-4-((3-isopropylphenyl)sulfonyl)-3,4-dihydro-2H-benzo[b][1,4]oxazin-2-yl)propanoate]	< 500	< 500	–	–	–	–
CC(=O)NC[C@H]1CN(S(=O)(=O)c2cccc(C(F)(F)F)c2)c2cc(/C=C(\C)c3c(F)cccc3Cl)ccc2O1 [Example 109C, (S,E)-N-((6-(2-(2-chloro-6-fluorophenyl)prop-1-en-1-yl)-4-((3-(trifluoromethyl)phenyl)-sulfonyl)-3,4-dihydro-2H-benzo[b][1,4]oxazin-2-yl)methyl)acetamide]	–	–	< 500	** (a value in the range of greater than 90 to 150)	< 500	** (a value in the range of greater than 90 to 150)
Cc1cnc(/C=C/c2ccc3c(c2)N(S(=O)(=O)c2cccc(C(F)(F)F)c2)C[C@H](CCC(=O)O)O3)c(F)c1 [Example 89CF, (S,E)-3-(6-(2-(3-fluoro-5-methylpyridin-2-yl)vinyl)-4-((3-(trifluoromethyl)phenyl)sulfonyl)-3,4-dihydro-2H-benzo[b][1,4]-oxazin-2-yl)propanoic acid]	500 to 5000	> 10000	–	–	–	–
